Measurements taken from patent US20090004726A1, “Inhibitor Tolerant Saccharomyces Cerevisiae Strain” (The United States of America, as represented by the …, priority 2007, published 2009).

Experiments:
[1] = test system: furfural reduction activity of Y-50049 whole cell extracts; assay: Whole cell lysate enzyme assay after inhibitor induction (absorbance at 340 nm); type: biochemical, Saccharomyces cerevisiae; settings: induction with 30 mM inhibitor for 3 h; 10 mM furfural substrate; 100 μM NADPH
[2] = test system: Saccharomyces cerevisiae NRRL Y-12632; assay: Dose-dependent response of ethanologenic yeast to HMF (cell growth, OD600)
Description: A loopful of cells of each strain from the synthetic medium agar plate was transferred into a synthetic broth and incubated at 30° C. with agitation and maintained in the broth prior to inoculum preparation. Cells were harvested by centrifugation 8-15 hours after incubation and suspended in a fresh synthetic broth serving as the inoculum source. The initial OD at 620 nm of the inoculated medium for each culture was adjusted and recorded. Each strain was grown in a 15-ml test tube containing 3 ml of synthetic broth amended with inhibitory compounds in an incubator at 30° C. with agitation at 220 rpm under micro-oxic conditions. Cell growth was monitored by measuring optical absorbance at 620 nm using a spectrophotometer and samples were taken periodically.
For inhibitor application, cultures were supplemented with HMF at a series of final concentrations of 0, 10, 30, 60, and 120 mM, or combined inhibitors of furfural and HMF each at 12 mM, respectively. A non inhibitor treated culture served as a control. Cultures were monitored for cell growth at OD600 and samples were taken hourly for the first 16 hours and proper intervals afterward till the completion of the fermentation. Cell free supernatant was taken for metabolic profiling analysis using HPLC. […] Duplicated experiments were carried out for all treatments.

Structure (SMILES) | induced furfural reduction activity coupled with cofactor NADPH [1] | cell growth ([2]; HMF at 120 mM) | cell growth ([2]; HMF at 10, 30 and 60 mM, compared with control) | lethal dose (cells completely repressed, no biological activity or HMF transformation till 128 hours) ([2]; synthetic medium, 30° C.) [mM]
O=Cc1ccc(CO)o1 [HMF, 5-hydroxymethylfurfural] | ranked the least | no cell growth was observed | delayed | 120
O=Cc1ccco1 [furfural] | strongest activities | – | – | –
